The values that follow come from US6333176A (Degussa Aktiengesellschaft, priority 1994, dated 2001).

Peptide text beside a SMILES is read from it. * marks the point of attachment. Cbz = O=C(OCc1ccccc1)*

The target in series [1] is T1, peptide amidase from Xanthomonas maltophilia (Stenotrophomonas maltophilia, UniProt Q8RJN5).
T1 construct: wild type, not recombinant
T1 sequence (Q8RJN5 34-540): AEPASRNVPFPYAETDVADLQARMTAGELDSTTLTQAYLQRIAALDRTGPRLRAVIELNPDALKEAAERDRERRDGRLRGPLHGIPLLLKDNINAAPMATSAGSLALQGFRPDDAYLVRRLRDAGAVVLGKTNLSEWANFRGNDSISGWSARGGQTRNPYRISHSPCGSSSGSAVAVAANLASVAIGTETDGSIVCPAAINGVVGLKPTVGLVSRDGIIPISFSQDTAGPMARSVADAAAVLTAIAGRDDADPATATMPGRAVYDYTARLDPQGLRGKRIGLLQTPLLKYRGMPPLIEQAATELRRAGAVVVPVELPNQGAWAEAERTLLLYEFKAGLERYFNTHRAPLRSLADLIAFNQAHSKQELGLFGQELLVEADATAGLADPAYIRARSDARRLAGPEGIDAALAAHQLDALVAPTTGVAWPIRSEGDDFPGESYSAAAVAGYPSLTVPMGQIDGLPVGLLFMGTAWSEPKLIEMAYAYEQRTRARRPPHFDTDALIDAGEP
Briefly: biochemical. The class given is biochemical.

The subject of series [2] is peptide amidase from flavedo of oranges. As to conditions: cited from earlier work.
Series [3] deals with T1, peptide amidase from Xanthomonas maltophilia. Briefly: Enzyme kinetics of peptide amidase. It counts as biochemical. The note with it: substrate 0.4 to 20 mM, 50 mM tris/HCl pH 7.5, 2 hours, 30° C. The procedure: (§1) The dependency of the reaction rate of peptide amidase from Xanthomonas maltophilia on the substrate concentration (Z-Gly-Tyr-NH2) was determined and the kinetic parameters determined from the data according to Marquardt. To this end, 50 μl enzyme solution a 27 μg BSAeq/ml were compounded with 400 μl 50 mM tris/HCl buffer, pH 7.5. The reaction was started by adding Z-Gly-Tyr-NH2 as substrate. The substrate was present in the reaction batches in a concentration range of 0.4 to 20 mM. The incubation took place for 2 hours at 30° C. The enzyme activity was then determined as described under 1.4.
(§2) The reaction conditions were selected with a view to the pH stability of peptide amidase from Xanthomonas maltophilia.
(§3) In order to stop the reaction 100 μl of the reaction solution was removed, compounded with 100 μl glacial acetic acid and filled with 1.4 ml HPLC mobile solvent. An aliquot of 20 μl was analyzed by HPLC. The conditions for the HPLC analysis of Z-Gly-Tyr-NH2 were as follows: […]

Substrate in series [4]: NC(=O)[C@H](Cc1ccc(O)cc1)NC(=O)CNC(=O)OCc1ccccc1
Briefly: Enzyme kinetics of peptide amidase. As to conditions: other: substrate 0.4 to 20 mM, 50 mM tris/HCl pH 7.5, 2 hours, 30° C. The class given is biochemical, Xanthomonas maltophilia. How it is done:
as §1, §2, §3

`O=S(=O)(F)Cc1ccccc1` [Phenylmethane sulfonyl fluoride]: in series [1], the “inhibition of the microbial peptide amidase (serine groups)” value is “Inhibition”. Moreover, in series [1] (potential inhibitor 10 mM in the test, preincubation 1 h 30° C., Z-Gly-Tyr-NH2 10 mM, 2.5 h), the residual activity is 58%. In series [2], the “inhibition by inhibitors from serine proteases” value is listed as “Slight inhibition”.

In series [3], `NC(=O)[C@H](Cc1ccc(O)cc1)NC(=O)CNC(=O)OCc1ccccc1` [Z-Gly-Tyr-NH2] (Cbz-Gly-Tyr-NH2) came in with a vmax of 0.53 U/mg BSAeq.

B1: peptide amidase from Xanthomonas maltophilia (Stenotrophomonas maltophilia) (protein)
chain: T1 sequence (Q8RJN5 34-540)
notes: wild type, not recombinant
With B1, the Km in series [4] was determined as 820 µM.
